Here are results for 38 molecules from patent US9290485B2, “N-((6-amino-pyridin-3-yl)methyl)-heteroaryl-carboxamides” (NOVARTIS AG, priority 2010, dated 2016).

The experiment deals with human plasma kallikrein (Homo sapiens (Human), UniProt P03952). As to conditions: human plasma kallikrein 25 pM, substrate 0.5 uM, 1 hour pre-incubation at room temperature, read at t=60 min.
Chain of human plasma kallikrein (P03952 whole entry, looked up): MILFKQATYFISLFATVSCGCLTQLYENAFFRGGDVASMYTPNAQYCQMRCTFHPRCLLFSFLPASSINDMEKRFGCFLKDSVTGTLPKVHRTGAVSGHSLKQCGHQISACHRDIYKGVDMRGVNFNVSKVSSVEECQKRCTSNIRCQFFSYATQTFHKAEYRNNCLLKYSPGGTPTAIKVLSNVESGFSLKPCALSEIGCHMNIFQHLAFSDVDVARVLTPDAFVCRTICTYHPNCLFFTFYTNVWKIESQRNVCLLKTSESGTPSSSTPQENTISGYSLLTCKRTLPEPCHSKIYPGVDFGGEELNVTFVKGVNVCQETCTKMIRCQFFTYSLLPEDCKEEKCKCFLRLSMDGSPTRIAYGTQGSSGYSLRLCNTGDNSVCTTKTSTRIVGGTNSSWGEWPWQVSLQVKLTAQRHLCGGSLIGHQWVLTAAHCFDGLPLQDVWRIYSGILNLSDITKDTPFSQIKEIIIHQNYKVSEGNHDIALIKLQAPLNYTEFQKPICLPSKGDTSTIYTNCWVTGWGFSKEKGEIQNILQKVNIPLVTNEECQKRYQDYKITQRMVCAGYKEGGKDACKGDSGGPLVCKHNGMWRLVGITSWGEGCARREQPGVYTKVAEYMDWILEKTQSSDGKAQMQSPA
Chain of human plasma kallikrein (P03952 whole entry partner, looked up): as the sequence (P03952 whole entry, looked up) above
One may read the IC50 as the point on the concentration scale where inhibition reaches its midpoint. Consider `Cc1cc(N)nc(C)c1CNC(=O)c1csc(Cc2ccccc2)n1` [Example 47, N-((6-amino-2,4-dimethylpyridin-3-yl)methyl)-2-benzylthiazole-4-carboxamide], for which half-maximal inhibition (IC50) was put at 3200 nM. `Cc1cc(N)nc(C)c1CNC(=O)c1ccc(Oc2ccccc2)o1` [Example 48, N-((6-amino-2,4-dimethylpyridin-3-yl)methyl)-5-phenoxyfuran-2-carboxamide] registered an IC50 of 35500 nM. For `Cc1cc(N)nc(C)c1CNC(=O)c1cn(Cc2ccccc2)nc1C` [Example 49, N-((6-amino-2,4-dimethylpyridin-3-yl)methyl)-1-benzyl-3-methyl-1H-pyrazole-4-carboxamide] the value was 679 nM. In the case of `Cc1cc(N)nc(C)c1CNC(=O)c1cc(C)n(C(C)c2ccccc2)c1C` (centres unmarked) [Example 51, N-((6-amino-2,4-dimethylpyridin-3-yl)methyl)-2,5-dimethyl-1-(1-phenylethyl)-1H-pyrrole-3-carboxamide] it was 7000 nM; in that of `Cc1cc(N)nc(C)c1CNC(=O)c1cc(S(=O)(=O)N2CCOCC2)c[nH]1` [Example 52, N-((6-amino-2,4-dimethylpyridin-3-yl)methyl)-4-(morpholinosulfonyl)-1H-pyrrole-2-carboxamide], 5700 nM. In the case of `Cc1cc(N)nc(C)c1CNC(=O)c1cn(Cc2c(F)cccc2F)nn1` [Example 53, N-((6-amino-2,4-dimethylpyridin-3-yl)methyl)-1-(2,6-difluorobenzyl)-1H-1,2,3-triazole-4-carboxamide] it was 3600 nM; in that of `Cc1cc(N)nc(C)c1CNC(=O)c1cn(Cc2cccc(C#N)c2)nn1` [Example 54, N-((6-amino-2,4-dimethylpyridin-3-yl)methyl)-1-(3-cyanobenzyl)-1H-1,2,3-triazole-4-carboxamide], 1800 nM; in that of `Cc1cc(N)nc(C)c1CNC(=O)c1sc(Cc2ccccc2)nc1C` [Example 55, N-((6-amino-2,4-dimethylpyridin-3-yl)methyl)-2-benzyl-4-methylthiazole-5-carboxamide], 6300 nM.

Molecule `Cc1cc(N)nc(C)c1CNC(=O)c1ncn(Cc2ccccc2)n1` [Example 56, N-((6-amino-2,4-dimethylpyridin-3-yl)methyl)-1-benzyl-1H-1,2,4-triazole-3-carboxamide] came in with a 50% inhibitory concentration (IC50) of 4400 nM. In the case of `Cc1cncc(Oc2ccc(Cn3cc(C(=O)NCc4c(C)cc(N)nc4C)cn3)cc2)n1` [Example 57, N-((6-amino-2,4-dimethylpyridin-3-yl)methyl)-1-(4-(6-methylpyrazin-2-yloxy)benzyl)-1H-pyrazole-4-carboxamide] it was 144 nM; in that of `Cc1cc(N)nc(C)c1CNC(=O)c1coc(Cc2ccccc2)n1` [Example 58, N-((6-amino-2,4-dimethylpyridin-3-yl)methyl)-2-benzyloxazole-4-carboxamide], 3800 nM. For `Cc1cc(N)nc(C)c1CNC(=O)c1ncn(Cc2ccc(Cn3cncn3)cc2)n1` [Example 59] the value was 209 nM; for `COCCOc1cc(N)nc(C)c1CNC(=O)c1cnn(Cc2ccccc2)c1` [Example 60, N-((6-amino-4-(2-methoxyethoxy)-2-methylpyridin-3-yl)methyl)-1-benzyl-1H-pyrazole-4-carboxamide], 379 nM; for `Cc1cc(N)nc(C)c1CNC(=O)c1ncn(Cc2ccc(-c3ccccc3)cc2)n1` [Example 61, N-((6-amino-2,4-dimethylpyridin-3-yl)methyl)-1-(biphenyl-4-ylmethyl)-1H-1,2,4-triazole-3-carboxamide], 46 nM. `Cc1cc(N)nc(C)c1CNC(=O)c1ncn(Cc2cccc3ccccc23)n1` [Example 62, N-((6-amino-2,4-dimethylpyridin-3-yl)methyl)-1-(naphthalen-1-ylmethyl)-1H-1,2,4-triazole-3-carboxamide] came in with an IC50 of 681 nM. In the case of `Cc1cc(N)nc(C)c1CNC(=O)c1ncn(Cc2ccc(Oc3ccccc3)cc2)n1` [Example 63, N-((6-amino-2,4-dimethylpyridin-3-yl)methyl)-1-(4-phenoxybenzyl)-1H-1,2,4-triazole-3-carboxamide] it was 11 nM.

For the molecule `Cc1cc(N)nc(C)c1CNC(=O)c1ncn(Cc2ccc3ccccc3c2)n1` [Example 64, N-((6-amino-2,4-dimethylpyridin-3-yl)methyl)-1-(naphthalen-2-ylmethyl)-1H-1,2,4-triazole-3-carboxamide], the IC50 was 14 nM.

Molecule `Cc1cc(N)nc(C)c1CNC(=O)c1cnn(Cc2ccc(N3CCCC3=O)cc2)c1` [Example 65, N-((6-amino-2,4-dimethylpyridin-3-yl)methyl)-1-(4-(2-oxopyrrolidin-1-yl)benzyl)-1H-pyrazole-4-carboxamide] had an IC50 of 29 nM. In the case of `Cc1cc(N)nc(C)c1CNC(=O)c1ncn(Cc2ccc(-n3cccn3)cc2)n1` [Example 66, 1-(4-(1H-pyrazol-1-yl)benzyl)-N-((6-amino-2,4-dimethylpyridin-3-yl)methyl)-1H-1,2,4-triazole-3-carboxamide] it was 325 nM; in that of `Cc1cc(N)nc(C)c1CNC(=O)c1ncn(Cc2cccc(-n3cccn3)c2)n1` [Example 67, 1-(3-(1H-pyrazol-1-yl)benzyl)-N-((6-amino-2,4-dimethylpyridin-3-yl)methyl)-1H-1,2,4-triazole-3-carboxamide], 60 nM; in that of `Cc1cc(N)nc(C)c1CNC(=O)c1ncn(Cc2cccc(N3CCCC3)c2)n1` [Example 68, N-((6-amino-2,4-dimethylpyridin-3-yl)methyl)-1-(3-(pyrrolidin-1-yl)benzyl)-1H-1,2,4-triazole-3-carboxamide], 34 nM. For `Cc1cc(N)nc(C)c1CNC(=O)c1cnn(Cc2ccnc(N3CCOCC3)c2)c1` [Example 69, N-((6-amino-2,4-dimethylpyridin-3-yl)methyl)-1-((2-morpholinopyridin-4-yl)methyl)-1H-pyrazole-4-carboxamide] the value was 1600 nM; for `Cc1cc(N)nc(C)c1CNC(=O)c1ccn(Cc2ccccc2)c1` [Example 70, N-((6-amino-2,4-dimethylpyridin-3-yl)methyl)-1-benzyl-1H-pyrrole-3-carboxamide], 4100 nM; for `COCCc1cccc(Cn2cc(C(=O)NCc3c(C)cc(N)nc3C)cn2)c1` [Example 71, N-((6-amino-2,4-dimethylpyridin-3-yl)methyl)-1-(3-(2-methoxyethyl)benzyl)-1H-pyrazole-4-carboxamide], 190 nM. For `Cc1cc(N)nc(C)c1CNC(=O)c1cc(C)n(S(=O)(=O)c2ccccc2)c1C` [Example 72, N-((6-amino-2,4-dimethylpyridin-3-yl)methyl)-2,5-dimethyl-1-(Phenylsulfonyl)-1H-pyrrole-3-carboxamide] the value was 937 nM; for `COc1cc(Cn2cc(C(=O)NCc3c(C)cc(N)nc3C)cn2)cc(OC)c1` [Example 73, N-((6-amino-2,4-dimethylpyridin-3-yl)methyl)-1-(3,5-dimethoxybenzyl)-1H-pyrazole-4-carboxamide], 114 nM; for `Cc1cn(S(=O)(=O)c2ccccc2)cc1C(=O)NCc1c(C)cc(N)nc1C` [Example 74, N-((6-amino-2,4-dimethylpyridin-3-yl)methyl)-4-methyl-1-(phenylsulfonyl)-1H-pyrrole-3-carboxamide], 595 nM. Take `Cc1cc(N)nc(C)c1CNC(=O)c1cnn(Cc2ccc3[nH]c(C)c(C)c3c2)c1` [Example 75, N-((6-amino-2,4-dimethylpyridin-3-yl)methyl)-1-((2,3-dimethyl-1H-indol-5-yl)methyl)-1H-pyrazole-4-carboxamide]: the IC50 came out at 3.1 nM.

Molecule `Cc1cn(Cc2ccccc2)cc1C(=O)NCc1c(C)cc(N)nc1C` [Example 76, N-((6-amino-2,4-dimethylpyridin-3-yl)methyl)-1-benzyl-4-methyl-1H-pa role-3-carboxamide] had an IC50 of 949 nM. For `Cc1nc(N)cc(OCC(N)=O)c1CNC(=O)c1cnn(Cc2ccccc2)c1` [Example 77, N-((6-amino-4-(2-amino-2-oxoethoxy)-2-methylpyridin-3-yl)methyl)-1-benzyl-1H-pyrazole-4-carboxamide] the value was 72 nM. For `Cc1cc(N)nc(C)c1CNC(=O)c1coc(Oc2ccccc2)n1` [Example 78, N-((6-amino-2,4-dimethylpyridin-3-yl)methyl)-2-phenoxyoxazole-4-carboxamide] the value was 10100 nM; for `Cc1cc(N)nc(C)c1CNC(=O)c1cnn(Cc2ccc(OC(F)(F)F)cc2)c1` [Example 80, N-((6-amino-2,4-dimethylpyridin-3-yl)methyl)-1-(4-(trifluoromethoxy)benzyl)-1H-pyrazole-4-carboxamide], 117 nM; for `Cc1cc(N)nc(C)c1CNC(=O)c1cnn(Cc2cccc(C#N)c2)c1` [Example 81, N-((6-amino-2,4-dimethylpyridin-3-yl)methyl)-1-(3-cyanobenzyl)-1H-pyrazole-4-carboxamide], 411 nM. In the case of `Cc1cc(N)nc(C)c1CNC(=O)c1cnn(Cc2ccc(C#N)cc2)c1` [Example 82, N-((6-amino-2,4-dimethylpyridin-3-yl)methyl)-1-(4-cyanobenzyl)-1H-pyrazole-4-carboxamide] it was 678 nM; in that of `Cc1cc(N)nc(C)c1CNC(=O)c1cnn(Cc2ccc3ccccc3c2)c1` [Example 83, N-((6-amino-2,4-dimethylpyridin-3-yl)methyl)-1-(naphthalen-2-ylmethyl)-1H-pyrazole-4-carboxamide], 18 nM; in that of `Cc1cc(N)nc(C)c1CNC(=O)c1cnn(Cc2cccc(F)c2)c1` [Example 84, N-((6-amino-2,4-dimethylpyridin-3-yl)methyl)-1-(3-fluorobenzyl)-1H-pyrazole-4-carboxamide], 498 nM. `Cc1nc(N)ccc1CNC(=O)c1cnn(Cc2ccccc2)c1` [Example 85, N-((6-amino-2-methylpyridin-3-yl)methyl)-1-benzyl-1H-pyrazole-4-carboxamide] yielded an IC50 of 4100 nM.

`Cc1cccc(Cn2cc(C(=O)NCc3c(C)cc(N)nc3C)cn2)n1` [Example 86, N-((6-amino-2,4-dimethylpyridin-3-yl)methyl)-1-((6-methylpyridin-2-yl)methyl)-1H-pyrazole-4-carboxamide] displayed an IC50 of 7500 nM.
